Results published in patent US6884810B2, “Benzimidazole derivatives” (Zeria Pharmaceutical Co., Ltd., priority 2001, dated 2005).

Columns and labels:
H+/K+-ATPase = target: T1, H+/K+-ATPase (Sus scrofa, UniProt P19156); assay: Proton pump inhibitory action: activity of inhibiting H+/K+-ATPase (at pH 1); type: biochemical; conditions: pig gastric mucosa enzyme sample; test compounds pretreated in hydrochloric acid solution pH 1 (50% DMSO) for 15 minutes; read-out: Proton pump inhibitory action [IC50 (μmol/L)]
T1 construct: The mucous membrane layer was homogenized in Tris-HCl buffer; from tissue; host or cells: pig stomach body, mucous membrane layer, membrane fraction from a sucrose interface
T1 sequence (P19156 2-1034 limits assumed): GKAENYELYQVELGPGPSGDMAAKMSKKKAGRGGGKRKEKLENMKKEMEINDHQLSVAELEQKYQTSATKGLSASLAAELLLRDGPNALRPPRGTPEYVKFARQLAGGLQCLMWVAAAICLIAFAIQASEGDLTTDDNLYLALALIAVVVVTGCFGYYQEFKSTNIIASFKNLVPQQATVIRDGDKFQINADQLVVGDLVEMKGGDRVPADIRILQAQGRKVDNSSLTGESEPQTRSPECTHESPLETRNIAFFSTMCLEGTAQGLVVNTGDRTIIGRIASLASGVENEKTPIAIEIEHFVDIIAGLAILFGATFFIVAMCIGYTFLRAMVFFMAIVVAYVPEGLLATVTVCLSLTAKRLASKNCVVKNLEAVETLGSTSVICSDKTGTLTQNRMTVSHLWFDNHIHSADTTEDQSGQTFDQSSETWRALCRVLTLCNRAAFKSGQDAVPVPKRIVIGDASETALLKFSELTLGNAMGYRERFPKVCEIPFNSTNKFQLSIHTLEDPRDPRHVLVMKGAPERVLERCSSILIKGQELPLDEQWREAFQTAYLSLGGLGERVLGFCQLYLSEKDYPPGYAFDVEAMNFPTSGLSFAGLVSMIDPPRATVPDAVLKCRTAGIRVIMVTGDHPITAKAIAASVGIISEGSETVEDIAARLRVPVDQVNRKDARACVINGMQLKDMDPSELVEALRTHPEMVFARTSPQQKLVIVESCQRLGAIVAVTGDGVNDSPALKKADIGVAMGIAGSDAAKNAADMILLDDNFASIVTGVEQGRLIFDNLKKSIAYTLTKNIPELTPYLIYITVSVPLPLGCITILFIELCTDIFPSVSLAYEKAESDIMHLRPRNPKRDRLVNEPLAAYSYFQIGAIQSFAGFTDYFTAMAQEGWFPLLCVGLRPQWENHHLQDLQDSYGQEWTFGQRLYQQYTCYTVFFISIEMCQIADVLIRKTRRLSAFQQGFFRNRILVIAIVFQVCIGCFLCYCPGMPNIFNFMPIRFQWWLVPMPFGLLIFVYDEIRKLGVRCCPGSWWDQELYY
T1 sequence (P18434 whole entry partner): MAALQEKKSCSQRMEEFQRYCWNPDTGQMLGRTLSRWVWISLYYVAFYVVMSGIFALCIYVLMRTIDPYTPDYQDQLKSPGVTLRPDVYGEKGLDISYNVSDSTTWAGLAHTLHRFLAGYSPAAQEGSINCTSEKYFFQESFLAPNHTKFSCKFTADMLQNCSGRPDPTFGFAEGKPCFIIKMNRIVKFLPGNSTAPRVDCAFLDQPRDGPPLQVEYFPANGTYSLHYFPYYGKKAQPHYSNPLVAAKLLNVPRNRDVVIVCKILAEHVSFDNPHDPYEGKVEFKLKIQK
Excerpt: (Proton Pump Inhibitory Action)
(1) Preparation of Enzyme Sample (H^+/K^+-ATPase)
The stomach body removed from a pig, which had been stored in a frozen state, was separated into a muscle layer and a mucous membrane layer. The mucous membrane layer was homogenized in Tris-HCl buffer (20 mmol/L, pH 7.4) having a volume 5 times that of the layer and containing sucrose (0.25 mol/L) and EGTA (1 mmol/L) (hereinafter the mixture is referred to as Tris-HCl buffer) in a mixer. The homogenate was subjected to centrifugation (9,000×g, 30 minutes). The supernatant was softly placed on 8 mL Tris-HCl buffer (20 mmol/L, pH 7.4) containing 30% sucrose and 1 mmol/L EGTA. The mixture was subjected to ultracentrifugation at 100,000×g for 60 minutes. The interface fraction obtained through centrifugation was subjected to centrifugation (113,000×g, 60 minutes) twice. Pellet was suspended in Tris-HCl buffer, and the suspension was homogenized at low speed. The resultant homogenate served as an enzyme sample of interest and was stored at −80° C. The protein content of the sample was quantitated through use of a BCA protein assay reagent in accordance with a method described by Smith et al. (Anal. Biochem., 150, 76-85 (1985)). All these steps were performed under cooling with an ice bath.
(2) Activity of inhibiting H^+/K^+-ATPase (at pH 1)
Activity of inhibiting H^+/K^+-ATPase was measured in accordance with a method described in Biochem. Biophys. Res. Commun., 40, 880-886 (1970). Specifically, ATP was employed as a substrate, and inorganic phosphate, which is a resultant degradation product, was quantitated. In consideration of the solubility of test compounds, the test compounds were preliminarily treated with a hydrochloric acid solution (containing 50% DMSO, 1×10^−1 mol/L, pH 1). Each of the test compounds having different concentrations was added to the hydrochloric acid solution to thereby yield a 1,000—fold dilution, and thereafter, the diluted compound was allowed to stand for 15 minutes at room temperature. After these preliminary remedies, a 10 μL solution that had undergone the above preliminary remedies were added to 840 μL Tris-acetate buffer (40 mmol/L, pH 7.5, containing 2 mmol/L MgCl2, may be referred to as TE buffer) containing or not containing 20 mmol/L KCl. Subsequently, a 100 μL enzyme solution (5 μg protein) diluted with the TE buffer was added. Incubation was performed for 30 minutes at 37° C. Thereafter, a 50 μL ATP solution (40 mmol/L) which was dissolved in TE buffer not containing KCl was added to initiate enzyme reaction (total volume: 1 mL, ATP final concentration: 2 mmol/L). Incubation was performed for 30 minutes at 37° C. Subsequently, ice-cold 12% trichloroacetic acid (2 mL) was added, to thereby stop the enzyme reaction. A molybdenum reagent (1 mL, 3.75% ammonium molybdate/1.5 mol/L sulfuric acid) and butyl acetate (5 mL) were added, followed by mixing under vigorous shaking for 5 minutes. The absorption of the butyl acetate layer was measured at 310 nm. A standard curve was determined on the basis of absorption obtained through the similar procedure by use of KH2PO4 at different concentrations dissolved in 8% TCA solution, and inorganic phosphate content was calculated. Samples to be measured were prepared in duplicate. The measurements were averaged, and residual activity was obtained from the difference between the inorganic phosphate content as determined in a sample containing KCl and that as determined in a sample not containing KCl. Percentage inhibition activity was calculated with respect to the activity obtained from a control sample (DMSO), which was considered 100%. As the inhibitory potency of each test compound, IC50 values were computed and shown. All the test compounds were dissolved in dimethyl sulfoxide immediately before use.

CYP2C19 = target: T2, CYP2C19 (Homo sapiens, UniProt P33261); assay: Human CYP2C19 activity inhibition test (S-(+)-mephenytoin to 4'-hydroxymephenytoin); type: in vitro ADME; conditions: test compound 10 μM, human CYP2C19 yeast expression system microsome, 4'-hydroxymephenytoin generated vs control; for CYP2C19 residual activity (%): 10 µM
T2 construct: purchased Sumitomo Chemical Co., Ltd; host or cells: yeast (microsomes)
T2 sequence (P33261 whole entry): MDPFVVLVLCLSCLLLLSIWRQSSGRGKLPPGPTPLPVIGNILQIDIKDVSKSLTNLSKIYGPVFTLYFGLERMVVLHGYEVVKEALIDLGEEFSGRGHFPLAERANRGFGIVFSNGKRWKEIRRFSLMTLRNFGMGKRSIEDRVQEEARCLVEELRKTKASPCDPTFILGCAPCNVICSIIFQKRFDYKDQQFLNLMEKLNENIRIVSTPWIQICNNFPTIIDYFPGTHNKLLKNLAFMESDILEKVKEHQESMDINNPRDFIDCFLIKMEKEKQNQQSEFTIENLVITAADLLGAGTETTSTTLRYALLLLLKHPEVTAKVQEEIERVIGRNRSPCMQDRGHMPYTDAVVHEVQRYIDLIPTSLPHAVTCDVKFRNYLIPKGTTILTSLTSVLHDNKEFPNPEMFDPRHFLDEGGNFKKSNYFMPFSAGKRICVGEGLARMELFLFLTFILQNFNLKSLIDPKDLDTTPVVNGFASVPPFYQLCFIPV
Description: (Human CYP2C19 Activity Inhibition Test)
CYP2C19 specifically participates in the metabolism reaction from S-(+)-mephenytoin to 4′-hydroxymephenytoin. Therefore, by use of an expression system CYP2C19, the production amount (concentration) of 4′-hydroxymephenytoin, serving as an index for CYP2C19 activity, was determined, whereby the inhibitory action of respective test substances was investigated.
(a) Metabolizing Activity Test
A solution of S-(+)-mephenytoin in methanol (125 μmol/L, 50 μL) and a solution of a test substance in methanol (25 μmol/L, 0, 10, 100, or 200 μL) were placed in a 10-mL glass test tube. The solvent was removed under a nitrogen gas at 40° C. A 75 μL mixture of 0.5M phosphate buffer (pH 7.4)-0.5 mM EDTA (20:10), 140 μL purified water, and 10 μL human CYP2C19 yeast expression system microsome (purchased from Sumitomo Chemical Co., Ltd.) were added.
Incubation was performed for 10 minutes at 37° C. Subsequently, aqueous 12% perchloric acid solution (50 μL) was added, to thereby stop the reaction.
After the reaction was stopped, an internal standard substance (I.S.) methyl p-hydroxybenzoate (100 μg/ mL, 50 μL), and diethyl ether (2 mL) were added. The mixture was shaken for 10 minutes, followed by centrifugation at 3,000 rpm for 10 minutes. The organic layer was separated, and the solvent was removed under a nitrogen gas at 40° C. The residue was dissolved in a 200 μL mobile phase, and the mixture was subjected to analysis by high performance liquid chromatography (HPLC).
In order to generate a calibration curve, the general procedure of the above process was repeated by use of 4′-hydroxymephenytoin solution instead of the S-(+)-mephenytoin solution. Quantitation was performed on the basis of the peak area ratio of 4′-hydroxymephenytoin to I.S. The amount of 4′-hydroxymephenytoin generated in the control sample was compared with that generated in the present of a test compound, and the results of comparison were used as an activity index.
HPLC was performed under the conditions described below (HPLC conditions A or HPLC conditions B).

[1] = system: gastric acid secreted under stimulation with histamine; assay: Gastric acid secretion inhibition action, histamine-stimulated, acute Fistula method; type: in vivo, Sprague-Dawley (SD) rats; conditions: SD rats, administered in the duodenum, histamine 8 mg/kg/h, total acid discharge at 3, 4 and 5 hours, Probit method
Description: (Gastric Acid Secretion Inhibition Action)
(1) Test Animals Employed were Sprague-Dawley (SD) Rats (7 Weeks Old, Male) Purchased from Charles River Japan, Inc. Before the Test, the Rats Were Fed for 5 Days or More.
Each test drug was suspended in, or dissolved in, 0.5% sodium carboxymethylcellulose solution, whereby a suspension or solution was prepared so as to attain 2.5 mL/kg.
(2) Measurement of Gastric Acid Secretion
The amount of gastric acid secreted under stimulation with histamine was measured on the rats fasted for 18 hours by use of the acute Fistula method as described by Hiramatsu et al. (Dig. Dis. Sci.,39, 689-697(1994)). Briefly, each rat was etherized lightly, and then a winged tubular needle filled with 3.8% citric acid solution was indwelled in the tail vein of the rat. The abdomen of the rat was opened, and the pyloric part of the stomach was ligated. Subsequently, a small hole was made in the duodenum, and the abdomen of the rat was closed with a feeding tube filled with saline indwelled. The inside of the stomach was washed with saline, a polyethylene-made Fistula tube (inner diameter: 4 mm) was set in the anterior stomach, and the cut portion of the anterior stomach was ligated and secured. The stomach and the duodenum were returned to the abdominal cavity, with the Fistula tube and the feeding tube exposed outside. The rat was placed in a Ballman cage II. Histamine was continuously administered through the winged injection needle which had been indwelled in the tail vein in advance (8 mg/kg/h, 1.38 mL/h). 15 Minutes thereafter, gastric juice of the rat was collected. Subsequently, collection of gastric juice was performed every one hour. Each time, the amount of the collected gastric juice was recorded, followed by titration with NaOH (0.1 mol/L) up to the end point pH 7.0. From the volume consumed for titration, acidity was calculated. The acid discharge amount was calculated as a product of the amount of the gastric juice and the acidity. Before starting the test, the rats were grouped so that the intra-group total amount of the gastric juice samples initially collected was the same between groups. Thereafter, each test drug was administered (2.5 mL/kg) in the duodenum through a feeding tube which had been attached to the duodenum in advance. To each rat of a control group, 0.5% Na-CMC solution was administered.
(3) Analysis of the Results
The data as obtained above are shown by way of mean±standard error. Total amount of acid discharge was obtained through summation of the amounts of acid discharge at three points in time; i.e., 3, 4 and 5 hours after initial collection of gastric juice. Percent inhibition of each group was computed from the total acid discharge amount of the control group and that of each group. On the basis of the percent inhibition calculated for each group, 50% effective dose (ED50) was computed by use of the Probit method.

IC50 (H+/K+-ATPase) [µmol/L] | activity at 10 min, 10 µM (CYP2C19; human, pH 7.4, probe S-(+)-mephenytoin (to 4'-hydroxymephenytoin), read-out: CYP2C19 residual activity (%)) [%] | CYP2C19 residual activity (%) (CYP2C19) | Structure (SMILES) | Gastric-acid secretion inhibition action [ED50 (mg/kg)] [1] [mg/kg] | ED50 ([1]; Rattus norvegicus) [mg/kg]
7.86 | 88.8 |  | [O-][S+](Cc1cc(OCCOCC(F)(F)F)ccn1)c1nc2ccccc2[nH]1 (stereo not shown) [Example 12, 2-{4-[2-(2,2,2-trifluoroethoxy)ethoxy]pyridin-2-yl-methanesulfinyl}-1H-benzimidazole] |  | 
6.67 |  | 81.4 | [O-][S+](Cc1cc(OCCOCC(F)(F)F)ccn1)c1nc2ccccc2[nH]1 (single isomer, unassigned; (+)) [Example 14, (+)-2-{4-[2-(2,2,2-trifluoroethoxy)ethoxy]pyridin-2-yl-methanesulfinyl}-1H-benzimidazole] | 0.42 | 
3.46 |  | 93.9 | COc1c(OCCOCC(F)(F)F)ccnc1C[S+]([O-])c1nc2ccccc2[nH]1 (single isomer, unassigned; (-)) [Example 4, (−)-2-{3-methoxy-4-[2-(2,2,2-trifluoroethoxy)ethoxy]pyridin-2-yl-methylsulfinyl}-1H-benzimidazole] | 2.6 | 

Structure (SMILES) | IC50 (H+/K+-ATPase) [µmol/L] | activity at 10 min, 10 µM (CYP2C19; human, pH 7.4, probe S-(+)-mephenytoin (to 4'-hydroxymephenytoin), read-out: CYP2C19 residual activity (%)) [%] | CYP2C19 residual activity (%) (CYP2C19) | Gastric-acid secretion inhibition action [ED50 (mg/kg)] [1] [mg/kg] | ED50 ([1]; Rattus norvegicus) [mg/kg]
COc1c(OCCCC(F)(F)F)ccnc1C[S+]([O-])c1nc2ccccc2[nH]1 (single isomer, unassigned; (+)) [Example 5(1), (+)-2-[3-methoxy-4-(4,4,4-trifluorobutoxy)pyridin-2-yl-methanesulfinyl]-1H-benzimidazole] | 3.32 |  | 78.6 |  | 0.9
[O-][S+](Cc1cc(OCCCC(F)(F)F)ccn1)c1nc2ccccc2[nH]1 (single isomer, unassigned; (+)) [Example 11, (+)-2-[4-(4,4,4-trifluorobutoxy)pyridin-2-yl-methanesulfinyl]-1H-benzimidazole] | 3.77 |  |  | 0.50 | 
